Reference: PubChem BioAssay (NCI)
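Method: 48-hour compound exposure of cells in 96-well plates, five concentrations, linear interpolation of endpoints. TGI: concentration producing complete growth inhibition.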

What was measured:
Experiment in all cases: inhibition of tumour cell growth, NCI panel, 48 h
[1] = test system: 786-0 renal
[2] = test system: A498 renal
[3] = test system: A549 NSCLC
[4] = test system: ACHN renal
[5] = test system: BT-549 breast
[6] = test system: CAKI-1 renal
[7] = test system: CCRF-CEM leukemia
[8] = test system: COLO 205 colon
[9] = test system: DU-145 prostate
[10] = test system: EKVX NSCLC
[11] = test system: HCC-2998 colon
[12] = test system: HCT-116 colon
[13] = test system: HCT-15 colon
[14] = test system: HL-60(TB) leukemia
[15] = test system: HOP-62 NSCLC
[16] = test system: HOP-92 NSCLC
[17] = test system: HS 578T breast
[18] = test system: HT29 colon
[19] = test system: IGROV1 ovarian
[20] = test system: K-562 leukemia
[21] = test system: KM12 colon
[22] = test system: LOX IMVI melanoma
[23] = test system: M14 melanoma
[24] = test system: MALME-3M melanoma
[25] = test system: MCF7 breast
[26] = test system: MDA-MB-231 breast
[27] = test system: MDA-MB-435
[28] = test system: MDA-N
[29] = test system: MOLT-4 leukemia
[30] = test system: NCI-H23 lung
[31] = test system: NCI-H460 lung
[32] = test system: NCI-H522 lung
[33] = test system: NCI/ADR-RES ovarian
[34] = test system: OVCAR-4 ovarian
[35] = test system: OVCAR-5 ovarian
[36] = test system: OVCAR-8 ovarian
[37] = test system: RPMI-8226 leukemia
[38] = test system: RXF 393 renal
[39] = test system: SF-268 CNS
[40] = test system: SF-295 CNS
[41] = test system: SK-MEL-2 melanoma
[42] = test system: SK-MEL-28 melanoma
[43] = test system: SK-MEL-5 melanoma
[44] = test system: SK-OV-3 ovarian
[45] = test system: SN12C renal
[46] = test system: SNB-19 CNS
[47] = test system: SR leukemia
[48] = test system: SW-620 colon
[49] = test system: T-47D breast
[50] = test system: TK-10 renal
[51] = test system: U251 CNS
[52] = test system: UACC-257 melanoma
[53] = test system: UACC-62 melanoma
[54] = test system: UO-31 renal

Measured: TGI

COc1cc2c(cc1OC)C1CN3CCCC3C(O)C1c1cc(OC)c(OC)cc1-2 (centres undefined)
> 100 µM: all assays above
